Literature values as cited in US20260098286A1, “Low Dose Psilocybin in Foodstuff and Microbes for Same” (ATX PHARMERS LLC, priority 2021, published 2026).

Columns and labels:
[1] = adults
[2] = degrades in the presence of oxygen
[3] = test system: human serotonin-related receptors
[4] = not given; remark: listed apart in the source
[5] = in vivo
[6] = weight per weight basis

SMILES | blood plasma concentration at which psychological effects occur [1] | psilocin concentrations in the plasma (average) ([1]; within 2 hours after single 15 mg oral psilocybin dose) | stability in solution [2] | number of human serotonin-related receptors bound [3] | detectability in the urine (after 7 days) | ingested psilocybin absorbed through the stomach and intestine (animal studies) | absorbed psilocybin excreted in the bile and feces (within 24 hours) | absorbed psilocybin excreted into the urine (within 24 hours) | effects begin after ingestion ([4]; after ingestion) [min] | effects last ([4]; depending on dose, species, and individual metabolism) [h] | half-life of psilocybin ([4]; taken orally) [h] | toxicity [5] | potency relative to LSD (times less potent) [6]
CN(C)CCc1c[nH]c2cccc(O)c12 [psilocin] | 4-6 μg/liter | about 8 μg/liter | relatively unstable | over 15 |  |  |  |  |  |  |  |  | 
CN(C)CCc1c[nH]c2cccc(OP(=O)(O)O)c12 [psilocybin, 4-phosphoryloxy-N,N-dimethyltryptamine] |  |  |  |  | still detectable | about 50% | 15-20% | about 65% | 10 to 40 | 2 to 6 | 2.72 ± 1.07 | low toxicity | about 100 times
